# Test results published in patent US10800792B2, “Inhibitors of Bruton's tyrosine kinase and method of their use” (JANSSEN PHARMACEUTICA NV, priority 2015, dated 2020).
# Molecular target: unphosphorylated-BTK kinase domain (UP-BTK), GST-tagged human BTK (389-659aa) (Homo sapiens (Human), UniProt Q06187)
# Assay: BTK kinase Lanthascreen binding assay
# Conditions: Lanthascreen tracer competition, 60 minutes incubation; pIC50 = negative log of the IC50 in molar
# Procedure, shortened: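 Tracer-displacement binding assay against the non-phosphorylated enzyme, read by Lanthascreen. Reported: pIC50.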
# Sequence of unphosphorylated-BTK kinase domain (UP-BTK), GST-tagged human BTK (389-659aa) (Q06187 389-659): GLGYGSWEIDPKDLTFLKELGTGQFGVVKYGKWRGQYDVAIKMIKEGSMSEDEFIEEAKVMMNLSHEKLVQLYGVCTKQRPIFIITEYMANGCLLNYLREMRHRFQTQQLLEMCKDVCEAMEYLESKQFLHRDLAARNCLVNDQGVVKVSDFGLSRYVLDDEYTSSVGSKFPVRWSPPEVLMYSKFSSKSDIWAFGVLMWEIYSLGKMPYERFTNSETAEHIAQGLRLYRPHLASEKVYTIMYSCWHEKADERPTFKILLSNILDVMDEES
row,SMILES,BTK_I_binding pIC50
1,"C=CC(=O)N1CCC[C@@H](NC(=O)c2sc3nccc4c3c2NC(=O)N4c2cccc(C3CCOCC3)c2)C1 [Example 708, (R)—N-(1-Acryloylpiperidin-3-yl)-4-oxo-5-(3-(tetrahydro-2H-pyran-4-yl)phenyl)-4,5-dihydro-3H-1-thia-3,5,8-triazaacenaphthylene-2-carboxamide]",6.5
2,"C=CC(=O)N1CCC[C@@H](NC(=O)c2sc3nccc4c3c2NC(=O)N4c2cnc(OC3CCCC3)cc2C)C1 (single isomer, unassigned) [Example 768, (R)—N-(1-Acryloylpiperidin-3-yl)-5-(*S)-(6-(cyclopentyloxy)-4-methylpyridin-3-yl)-4-oxo-4,5-dihydro-3H-1-thia-3,5,8-triazaacenaphthylene-2-carboxamide]",8.2
3,"C=CC(=O)N1CCC[C@@H](NC(=O)c2sc3nccc4c3c2NC(=O)N4c2ncc(Oc3ccccc3)nc2C)C1 [Example 657, (R)—N-(1-Acryloylpiperidin-3-yl)-5-(3-methyl-5-phenoxypyrazin-2-yl)-4-oxo-4,5-dihydro-3H-1-thia-3,5,8-triazaacenaphthylene-2-carboxamide]",7.7
4,"C=CC(=O)N1CCC[C@@H](NC(=O)c2sc3nccc4c3c2NC(=O)N4c2ccc(Oc3ccccc3F)cn2)C1 [Example 777, (R)—N-(1-Acryloylpiperidin-3-yl)-5-(5-(2-fluorophenoxy)pyridin-2-yl)-4-oxo-4,5-dihydro-3H-1-thia-3,5,8-triazaacenaphthylene-2-carboxamide]",8.3
5,"Cc1cc(Oc2ccccc2)ccc1N1C(=O)Nc2c(C(=O)N[C@@H]3CCCN(C(=O)/C(C#N)=C/C(C)(C)C)C3)sc3nccc1c23 [Example 880, (R,E)-N-(1-(2-Cyano-4,4-dimethylpent-2-enoyl)piperidin-3-yl)-5-(2-methyl-4-phenoxyphenyl)-4-oxo-4,5-dihydro-3H-1-thia-3,5,8-triazaacenaphthylene-2-carboxamide]",7.1
6,"Cc1cc(Oc2ccccc2)cnc1N1C(=O)Nc2c(C(=O)N[C@@H]3CCCNC3)sc3nccc1c23 [Example 595, (R)-5-(3-Methyl-5-phenoxypyridin-2-yl)-4-oxo-N-(piperidin-3-yl)-4,5-dihydro-3H-1-thia-3,5,8-triazaacenaphthylene-2-carboxamide]",7.1
7,"Cc1cc(Oc2ccccc2)ccc1N1C(=O)Nc2c(C(=O)NC3CCCN(C(=O)/C(C#N)=C/C4CC4)C3)sc3nccc1c23 (stereo not shown) [Example 877, (E)-N-(1-(2-Cyano-3-cyclopropylacryloyl)piperidin-3-yl)-5-(2-methyl-4-phenoxyphenyl)-4-oxo-4,5-dihydro-3H-1-thia-3,5,8-triazaacenaphthylene-2-carboxamide]",7.1
8,"N#C/C(=C\C1CC1)C(=O)N1CCC[C@@H](NC(=O)c2sc3nccc4c3c2NC(=O)N4c2cccc(Oc3ccccc3)c2)C1 [Example 840, (R,E)-N-(1-(2-Cyano-3-cyclopropylacryloyl)piperidin-3-yl)-4-oxo-5-(3-phenoxyphenyl)-4,5-dihydro-3H-1-thia-3,5,8-triazaacenaphthylene-2-carboxamide]",7.8
9,"Cc1cc(Oc2ccccc2)ccc1N1C(=O)Nc2c(C(=O)NC3CCCNC3)sc3nccc1c23 (stereo not shown) [Example 889, 5-(2-methyl-4-phenoxyphenyl)-4-oxo-N-(piperidin-3-yl)-4,5-dihydro-3H-1-thia-3,5,8-triazaacenaphthylene-2-carboxamide]",7.0
10,"Cc1cc(Oc2ccccc2)ccc1N1C(=O)Nc2c(C(=O)N[C@@H]3CCCN(C)C3)sc3nccc1c23 [Example 873, (R)-5-(2-Methyl-4-phenoxyphenyl)-N-(1-methylpiperidin-3-yl)-4-oxo-4,5-dihydro-3H-1-thia-3,5,8-triazaacenaphthylene-2-carboxamide]",6.9

# Same assay, conditions: Lanthascreen tracer competition, 60 minutes incubation; pIC50 = negative log of the IC50 in molar; read-out: BTK_I_binding pIC50 (converted)
row,SMILES,IC50
1,"Cc1cc(Oc2ccccc2)ccc1N1C(=O)Nc2c(C(=O)N[C@@H]3CCCN(C#N)C3)sc3nccc1c23 [Example 852, (R)—N-(1-Cyanopiperidin-3-yl)-5-(2-methyl-4-phenoxyphenyl)-4-oxo-4,5-dihydro-3H-1-thia-3,5,8-triazaacenaphthylene-2-carboxamide]",31.6 nM

# Same assay, conditions: pIC50 = negative log of the IC50 in molar; 60 minutes incubation, 50 nM Tracer 236
row,SMILES,BTK_I_binding pIC50
1,"CNCC(=O)N1CCC[C@@H](NC(=O)c2sc3nccc4c3c2NC(=O)N4c2ccc(Oc3ccccc3)cc2C)C1 [Example 91, (R)-5-(2-Methyl-4-phenoxyphenyl)-N-(1-(2-(methylamino)acetyl)piperidin-3-yl)-4-oxo-4,5-dihydro-3H-1-thia-3,5,8-triazaacenaphthylene-2-carboxamide]",7.3
2,"Cc1c(N2C(=O)Nc3c(C(=O)N[C@H]4CCCOC4)sc4nccc2c34)ccc(Oc2ccccc2)c1F [Example 61, (S)-5-(3-Fluoro-2-methyl-4-phenoxyphenyl)-4-oxo-N-(tetrahydro-2H-pyran-3-yl)-4,5-dihydro-3H-1-thia-3,5,8-triazaacenaphthylene-2-carboxamide]",7.3
3,"CCNC(C)(C)/C=C(\C#N)C(=O)N1CCC[C@@H](NC(=O)c2sc3nccc4c3c2NC(=O)N4c2ccc(Oc3ccccc3)cc2C)C1 [Example 212, (R,E)-N-(1-(2-Cyano-4-(ethylamino)-4-methylpent-2-enoyl)piperidin-3-yl)-5-(2-methyl-4-phenoxyphenyl)-4-oxo-4,5-dihydro-3H-1-thia-3,5,8-triazaacenaphthylene-2-carboxamide]",7.0
4,"C=CC(=O)N1CCC[C@@H](NC(=O)c2sc3nccc4c3c2NC(=O)N4c2ccc(OC3CCOCC3)cc2C)C1 [Example 65, (R)—N-(1-Acryloylpiperidin-3-yl)-5-(2-methyl-4-((tetrahydro-2H-pyran-4-yl)oxy)phenyl)-4-oxo-4,5-dihydro-3H-1-thia-3,5,8-triazaacenaphthylene-2-carboxamide]",6.6
5,"Cc1c(N2C(=O)Nc3c(C(=O)N[C@@H]4CCCN(C(=O)CCO)C4)sc4nccc2c34)ccc(Oc2ccccc2)c1F [Example 128, (R)-5-(3-Fluoro-2-methyl-4-phenoxyphenyl)-N-(1-(3-hydroxypropanoyl)piperidin-3-yl)-4-oxo-4,5-dihydro-3H-1-thia-3,5,8-triazaacenaphthylene-2-carboxamide]",7.2
6,"Cc1cc(Oc2ccccc2)ccc1N1C(=O)Nc2c(C(=O)N[C@@H]3CCCN(C(=O)CCN(C)C)C3)sc3nccc1c23 [Example 130, (R)—N-(1-(3-(Dimethylamino)propanoyl)piperidin-3-yl)-5-(2-methyl-4-phenoxyphenyl)-4-oxo-4,5-dihydro-3H-1-thia-3,5,8-triazaacenaphthylene-2-carboxamide]",7.1
7,"Cc1cc(Oc2ccccc2)ccc1N1C(=O)Nc2c(C(=O)N[C@@H]3CCCN(C(=O)[C@H]4CCN(C)C4)C3)sc3nccc1c23 [Example 125, 5-(2-Methyl-4-phenoxyphenyl)-N—((R)-1-((S)-1-methylpyrrolidine-3-carbonyl)piperidin-3-yl)-4-oxo-4,5-dihydro-3H-1-thia-3,5,8-triazaacenaphthylene-2-carboxamide]",7.2

# Same assay, conditions: unphosphorylated-BTK kinase domain, 50 nM Tracer 236, 60 minutes; pIC50 = negative log of the IC50 in molar
row,SMILES,BTK_I_binding pIC50
1,"C=CC(=O)N1CCC[C@@H](NC(=O)c2sc3nccc4c3c2NC(=O)N4C(C)C)C1 [Example 357, (R)—N-(1-Acryloylpiperidin-3-yl)-5-isopropyl-4-oxo-4,5-dihydro-3H-1-thia-3,5,8-triazaacenaphthylene-2-carboxamide]",5.1
2,"C=CC(=O)N1C[C@H](NC(=O)c2sc3nccc4c3c2NC(=O)N4c2ccc(Oc3ccccc3)cc2C)[C@@H](O)C1 (relative stereo) [Example 523, N-((3S,4S)-1-Acryloyl-4-hydroxypyrrolidin-3-yl)-5-(*S)-(2-methyl-4-phenoxyphenyl)-4-oxo-4,5-dihydro-3H-1-thia-3,5,8-triazaacenaphthylene-2-carboxamide]",7.5
3,"Cc1ccccc1-c1cccc(N2C(=O)Nc3c(C(=O)N[C@@H]4CCCNC4)sc4nccc2c34)c1 [Example 554, (R)-5-(2′-Methyl-[1,1′-biphenyl]-3-yl)-4-oxo-N-(piperidin-3-yl)-4,5-dihydro-3H-1-thia-3,5,8-triazaacenaphthylene-2-carboxamide]",6.7
4,"Cc1cc(Oc2ccccc2)ccc1N1C(=O)Nc2c(C(=O)N[C@@H]3CCCN(C(=O)/C=C/CN(C)C)C3)sc3nccc1c23 [Example 371, (R,E)-N-(1-(4-(Dimethylamino)but-2-enoyl)piperidin-3-yl)-5-(2-methyl-4-phenoxyphenyl)-4-oxo-4,5-dihydro-3H-1-thia-3,5,8-triazaacenaphthylene-2-carboxamide]",7.0
5,"C=CC(=O)N1CC[C@@H](NC(=O)c2sc3nccc4c3c2NC(=O)N4c2ccc(Oc3ccccc3)nn2)C1 [Example 311, (R)—N-(1-Acryloylpyrrolidin-3-yl)-4-oxo-5-(6-phenoxypyridazin-3-yl)-4,5-dihydro-3H-1-thia-3,5,8-triazaacenaphthylene-2-carboxamide]",5.9
6,"Cc1cc(Oc2ccccc2)ccc1N1C(=O)Nc2c(C(=O)N[C@@H]3CCNC(C)C3)sc3nccc1c23 (single isomer, unassigned) [Example 434, 5-(*S)-(2-Methyl-4-phenoxyphenyl)-N-((4*R)-2-methylpiperidin-4-yl)-4-oxo-4,5-dihydro-3H-1-thia-3,5,8-triazaacenaphthylene-2-carboxamide]",7.3

# Same assay, conditions: unphosphorylated-BTK kinase domain, 60 minutes incubation, 50 nM Tracer 236; pIC50 = negative log of the IC50 in molar
row,SMILES,BTK_I_binding pIC50
1,"CN1CC[C@H](NC(=O)c2sc3nccc4c3c2NC(=O)N4c2ccc(Oc3ccccc3)cc2)C1 [Example 931, (S)—N-(1-Methylpyrrolidin-3-yl)-4-oxo-5-(4-phenoxyphenyl)-4,5-dihydro-3H-1-thia-3,5,8-triazaacenaphthylene-2-carboxamide]",6.1
